# From PubChem BioAssay AID2060335 (Molecular Pharmacology Branch, DTP, NCI, 2025)
# Where “and” joins values, the source holds several entries; their conditions need not be identical. Equal entries are not always repeated.
# System: DU-145 multicell spheroids with HUVEC/MSC, viability
# Test: Anticancer human tumor DU-145 cell line growth inhibition [IpAb];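 note: spheroids exposed to agents for seven days before measurement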;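 for viability, T/C: percent of DMSO vehicle control viability so 100% = untreated level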
# Details: for viability, T/C: stronger effect = lower value
# Procedure, shortened: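 Multi-cell spheroids of 60% tumour cells, 25% HUVEC and 15% MSC in ultra-low-attachment U-bottom wells, treated with agents combined with ipatasertib or abemaciclib. Half-log ranges top out near clinical Cmax, or 10 microM when Cmax is unknown.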
# [1] = curve of first compound, second compound 0.1 µM
# [2] = curve of first compound, second compound 0.316 µM
# [3] = curve of first compound, second compound 1 µM
# [4] = second compound 0.1 µM, first compound 0.0316 µM
# [5] = second compound 0.1 µM, first compound 0.1 µM
# [6] = second compound 0.1 µM, first compound 0.316 µM
# [7] = second compound 0.1 µM, first compound 1 µM
# [8] = second compound 0.1 µM, first compound 3.16 µM
# [9] = second compound 0.1 µM, first compound 10 µM
# [10] = second compound 0.316 µM, first compound 0.0316 µM
# [11] = second compound 0.316 µM, first compound 0.1 µM
# [12] = second compound 0.316 µM, first compound 0.316 µM
# [13] = second compound 0.316 µM, first compound 1 µM
# [14] = second compound 0.316 µM, first compound 3.16 µM
# [15] = second compound 0.316 µM, first compound 10 µM
# [16] = second compound 1 µM, first compound 0.0316 µM
# [17] = second compound 1 µM, first compound 0.1 µM
# [18] = second compound 1 µM, first compound 0.316 µM
# [19] = second compound 1 µM, first compound 1 µM
# [20] = second compound 1 µM, first compound 3.16 µM
# [21] = second compound 1 µM, first compound 10 µM
compound,measurement,setting,value
Cc1nc(NC(=O)N2CCCC2C(N)=O)sc1-c1ccnc(C(C)(C)C(F)(F)F)c1 (centres undefined) + CC(C)NCC(C(=O)N1CCN(c2ncnc3c2C(C)CC3O)CC1)c1ccc(Cl)cc1,IC50,[1],0.0947 µM
same,IC50,[2],< 0.0316 µM
same,IC50,[3],< 0.0316 µM
same,IC50,"curve of first compound, second compound 3.16 µM",< 0.0316 µM
same,IC50,"curve of first compound, second compound 10 µM",< 0.0316 µM
same,"viability, T/C",[4],65.7%
same,"viability, T/C",[5],49.2%
same,"viability, T/C",[6],32.1%
same,"viability, T/C",[7],27.9%
same,"viability, T/C",[8],18.1%
same,"viability, T/C",[9],7.81%
same,"viability, T/C",[10],40%
same,"viability, T/C",[11],35%
same,"viability, T/C",[12],26.2%
same,"viability, T/C",[13],22.4%
same,"viability, T/C",[14],14.7%
same,"viability, T/C",[15],6.56%
same,"viability, T/C",[16],27.1%
same,"viability, T/C",[17],24.3%
same,"viability, T/C",[18],20.5%
same,"viability, T/C",[19],17.1%
same,"viability, T/C",[20],12.4%
same,"viability, T/C",[21],5.68%
same,"viability, T/C","second compound 3.16 µM, first compound 0.0316 µM",18.3%
same,"viability, T/C","second compound 3.16 µM, first compound 0.1 µM",18.5%
same,"viability, T/C","second compound 3.16 µM, first compound 0.316 µM",14.1%
same,"viability, T/C","second compound 3.16 µM, first compound 1 µM",14%
same,"viability, T/C","second compound 3.16 µM, first compound 3.16 µM",8.48%
same,"viability, T/C","second compound 3.16 µM, first compound 10 µM",5.66%
same,"viability, T/C","second compound 10 µM, first compound 0.0316 µM",14.9%
same,"viability, T/C","second compound 10 µM, first compound 0.1 µM",13.5%
same,"viability, T/C","second compound 10 µM, first compound 0.316 µM",11.8%
same,"viability, T/C","second compound 10 µM, first compound 1 µM",9.73%
same,"viability, T/C","second compound 10 µM, first compound 3.16 µM",8.28%
same,"viability, T/C","second compound 10 µM, first compound 10 µM",5.36%
CC1(C)CCC(CN2CCN(c3ccc(C(=O)NS(=O)(=O)c4ccc(NCC5CCOCC5)c([N+](=O)[O-])c4)c(Oc4cnc5[nH]ccc5c4)c3)CC2)=C(c2ccc(Cl)cc2)C1 + CCN1CCN(Cc2ccc(Nc3ncc(F)c(-c4cc(F)c5nc(C)n(C(C)C)c5c4)n3)nc2)CC1,IC50,"curve of first compound, second compound 0.01 µM",4.89 µM
same,IC50,"curve of first compound, second compound 0.0316 µM",4.11 µM
same,IC50,[1],4.19 µM
same,IC50,[2],3.64 µM
same,IC50,[3],3.43 µM
same,"viability, T/C","second compound 0.01 µM, first compound 0.0316 µM",108%
same,"viability, T/C","second compound 0.01 µM, first compound 0.1 µM",104%
same,"viability, T/C","second compound 0.01 µM, first compound 0.316 µM",103%
same,"viability, T/C","second compound 0.01 µM, first compound 1 µM",99.8%
same,"viability, T/C","second compound 0.01 µM, first compound 3.16 µM",70.2%
same,"viability, T/C","second compound 0.01 µM, first compound 10 µM",16.7%
same,"viability, T/C","second compound 0.0316 µM, first compound 0.0316 µM",95.8%
same,"viability, T/C","second compound 0.0316 µM, first compound 0.1 µM",101%
same,"viability, T/C","second compound 0.0316 µM, first compound 0.316 µM",97%
same,"viability, T/C","second compound 0.0316 µM, first compound 1 µM",90.4%
same,"viability, T/C","second compound 0.0316 µM, first compound 3.16 µM",61.5%
same,"viability, T/C","second compound 0.0316 µM, first compound 10 µM",11.1%
same,"viability, T/C",[4],94.8%
same,"viability, T/C",[5],102%
same,"viability, T/C",[6],92%
same,"viability, T/C",[7],78.9%
same,"viability, T/C",[8],64.3%
same,"viability, T/C",[9],13.5%
same,"viability, T/C",[10],84%
same,"viability, T/C",[11],88.2%
same,"viability, T/C",[12],80.3%
same,"viability, T/C",[13],72.5%
same,"viability, T/C",[14],56.7%
same,"viability, T/C",[15],10.8%
same,"viability, T/C",[16],71.3%
same,"viability, T/C",[17],72.8%
same,"viability, T/C",[18],68.3%
same,"viability, T/C",[19],69.5%
same,"viability, T/C",[20],52.2%
same,"viability, T/C",[21],12.3%
COc1c(OCCCN2CCOCC2)ccc2c3n(c(=NC(=O)c4cnc(N)nc4)nc12)CCN3,"viability, T/C",compound 0.00316 µM,78.7% and 83.3%
same,"viability, T/C",compound 0.01 µM,49.7% and 48.7%
same,"viability, T/C",compound 0.0316 µM,27.3% and 28.9%
same,"viability, T/C",compound 0.1 µM,15.9% and 14.9%
same,"viability, T/C",compound 0.316 µM,10.9% and 10.1%
same,"viability, T/C",compound 1 µM,11% and 11.2%
same,IC50,curve of compound,0.00992 µM and 0.00981 µM
C=CCn1c(=O)c2cnc(Nc3ccc(N4CCN(C)CC4)cc3)nc2n1-c1cccc(C(C)(C)O)n1,"viability, T/C",compound 0.0316 µM,92.5% and 92.3%
same,"viability, T/C",compound 0.1 µM,59.8% and 56.2%
same,"viability, T/C",compound 0.316 µM,23.2% and 29.1%
same,"viability, T/C",compound 1 µM,18.4% and 24.8%
same,"viability, T/C",compound 3.16 µM,11.1% and 15.6%
same,"viability, T/C",compound 10 µM,9.63% and 14.2%
same,IC50,curve of compound,0.136 µM and 0.129 µM
